Experimental data taken from patent US8153795B2, “Substituted 1-oxa-3,8-diazaspiro[4.5]-decan-2-one-compounds and the use thereof for producing drugs” (Gruenenthal GmbH, priority 2005, dated 2012).

Experiments:
human μ opioid receptor = target: T1, human μ opioid receptor (Homo sapiens, UniProt P35372); assay: affinity for the human μ opioid receptor, displacement of [3H]-naloxone, CHO-K1 membrane preparation; conditions: percentage inhibition of specific binding of [3H]-naloxone
T1 construct: purchased NEN, Zaventem, Belgium RB-HOM; host or cells: CHO-K1 cells (recombinant expression, membrane preparation)
T1 sequence (P35372 whole entry): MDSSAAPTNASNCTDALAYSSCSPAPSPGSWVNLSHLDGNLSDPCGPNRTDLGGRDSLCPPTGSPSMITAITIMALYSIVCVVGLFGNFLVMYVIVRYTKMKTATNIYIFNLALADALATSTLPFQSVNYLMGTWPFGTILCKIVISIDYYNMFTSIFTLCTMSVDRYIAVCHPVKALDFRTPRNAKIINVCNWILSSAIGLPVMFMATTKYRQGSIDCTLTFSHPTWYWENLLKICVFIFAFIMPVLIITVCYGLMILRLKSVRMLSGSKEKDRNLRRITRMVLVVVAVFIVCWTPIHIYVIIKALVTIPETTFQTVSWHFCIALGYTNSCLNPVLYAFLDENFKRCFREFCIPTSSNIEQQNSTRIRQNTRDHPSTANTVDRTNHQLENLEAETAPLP
Procedure: Receptor affinity for the human p opioid receptor is determined in a homogeneous batch in microtitre plates. To this end, dilution series of the particular substituted 1-oxa-3,8-diazaspiro[4.5]-decan-2-one compounds to be tested were incubated at room temperature for 90 minutes in a total volume of 250 μl with a receptor membrane preparation (15-40 μg of protein per 250 μl of incubation batch) of CHO-K1 cells, which express the human p opioid receptor (RB-HOM receptor membrane preparation from NEN, Zaventem, Belgium) in the presence of 1 nmol/l of the radioactive ligand [^3H]-naloxone (NET719, from NEN, Zaventem, Belgium) and of 1 mg of WGA-SPA beads (wheat germ agglutinin SPA beads from Amersham/Pharmacia, Freiburg, Germany). The incubation buffer used is 50 mmol/l tris-HCl supplemented with 0.05 wt. % of sodium azide and 0.06 wt. % of bovine serum albumin. Nonspecific binding is determined by additionally adding 25 μmol/l of naloxone. Once the ninety minute incubation time had elapsed, the microtitre plates were centrifuged off for 20 minutes at 1000 g and the radioactivity measured in a β counter (Microbeta-Trilux, from PerkinElmer Wallac, Freiburg, Germany). The percentage displacement of the radioactive ligand from its binding to the human p opioid receptor is determined at a concentration of the substances to be tested of 1 μmol/l and stated as percentage inhibition of specific binding.

5-HT transporter = target: T2, 5-HT transporter (Rattus norvegicus, UniProt P31652); assay: 5-HT uptake inhibition in rat brain synaptosomes (medulla and pons), [3H]-5-HT; type: biochemical
T2 construct: from tissue; host or cells: rat brain synaptosomes (P2 fraction) from medulla and pons
T2 sequence (P31652 whole entry): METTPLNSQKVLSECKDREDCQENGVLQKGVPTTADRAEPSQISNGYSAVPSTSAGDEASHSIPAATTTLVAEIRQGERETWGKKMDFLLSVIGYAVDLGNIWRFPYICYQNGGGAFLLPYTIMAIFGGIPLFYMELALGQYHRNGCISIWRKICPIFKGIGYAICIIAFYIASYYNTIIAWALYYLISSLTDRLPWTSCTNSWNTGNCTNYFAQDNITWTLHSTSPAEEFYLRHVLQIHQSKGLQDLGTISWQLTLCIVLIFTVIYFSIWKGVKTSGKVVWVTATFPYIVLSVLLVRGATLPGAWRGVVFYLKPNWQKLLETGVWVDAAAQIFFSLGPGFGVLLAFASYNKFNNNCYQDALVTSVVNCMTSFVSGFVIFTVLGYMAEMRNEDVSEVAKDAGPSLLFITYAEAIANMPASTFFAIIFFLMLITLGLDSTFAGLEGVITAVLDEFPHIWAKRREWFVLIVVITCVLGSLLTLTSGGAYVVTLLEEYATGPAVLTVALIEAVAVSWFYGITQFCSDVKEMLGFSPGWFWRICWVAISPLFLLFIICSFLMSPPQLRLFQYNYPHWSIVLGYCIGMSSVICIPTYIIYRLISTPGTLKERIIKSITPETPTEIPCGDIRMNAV
Summary of the method: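 Freshly isolated P2 synaptosomes taken from rat hypothalamus (NA) or medulla/pons (5-HT) were incubated at room temperature under O2 with [3H]-NA for 7.5 min or [3H]-5-HT for 5 min. Uptake was measured as filter-retained radioactivity by scintillation counting.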

NA transporter = target: T3, NA transporter (Rattus norvegicus, UniProt Q63380); assay: noradrenalin uptake inhibition in rat brain synaptosomes (hypothalamus), [3H]-NA; type: biochemical
T3 construct: from tissue; host or cells: rat brain synaptosomes (P2 fraction) from hypothalamus
T3 sequence (Q63380 1-617): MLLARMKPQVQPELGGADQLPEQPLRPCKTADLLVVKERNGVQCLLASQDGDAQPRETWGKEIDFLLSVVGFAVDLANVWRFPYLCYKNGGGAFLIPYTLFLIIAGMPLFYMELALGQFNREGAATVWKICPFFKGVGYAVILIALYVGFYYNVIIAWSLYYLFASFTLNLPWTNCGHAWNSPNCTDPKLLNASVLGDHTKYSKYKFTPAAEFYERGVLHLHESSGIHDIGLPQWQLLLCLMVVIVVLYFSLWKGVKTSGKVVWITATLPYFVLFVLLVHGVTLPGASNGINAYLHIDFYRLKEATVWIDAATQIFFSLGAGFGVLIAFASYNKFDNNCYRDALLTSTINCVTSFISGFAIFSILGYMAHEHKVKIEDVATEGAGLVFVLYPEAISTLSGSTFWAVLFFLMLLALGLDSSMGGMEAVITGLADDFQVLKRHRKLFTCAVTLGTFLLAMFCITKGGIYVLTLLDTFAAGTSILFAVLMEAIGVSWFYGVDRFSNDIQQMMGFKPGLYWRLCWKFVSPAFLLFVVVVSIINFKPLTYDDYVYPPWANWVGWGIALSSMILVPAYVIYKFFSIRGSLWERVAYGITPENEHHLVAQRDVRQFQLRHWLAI
Source text: a) Method for Determining Noradrenalin and 5-HT Uptake Inhibition:
Synaptosomes from rat brain regions are freshly isolated for in vitro studies, as described in the publication “The isolation of nerve endings from brain” by E. G. Gray and V. P. Whittaker, J. Anatomy 96, pages 79-88, 1962. The corresponding literature description is hereby introduced as a reference and is deemed to be part of the disclosure.
The tissue (hypothalamus for the determination of noradrenalin uptake inhibition and medulla and pons for the determination of 5-HT uptake inhibition) is homogenised in ice-cooled 0.32 M sucrose (100 mg of tissue/1 mL) in a glass homogeniser with Teflon pestle using five complete up and down strokes at 840 revolutions/minute.
The homogenate is centrifuged at 4° C. for 10 minutes at 1000 g. After subsequent centrifugation at 17000 g for 55 minutes, the synaptosomes (P2 fraction) are obtained, which are resuspended in 0.32 M […] (0.5 mL/100 mg of original weight).
The particular uptake is measured in a 96-well microtitre plate. The volume is 250 μl and the incubation proceeds at room temperature (approx. 20-25° C.) under an O2 atmosphere.
The incubation time is 7.5 minutes for [^3H]-NA and 5 minutes for [^3H]-5-HT. The 96 samples are then filtered through a Unifilter GF/B® microtitre plate (Packard) and washed with 200 mL of incubated buffer using a “Brabdel MPXRI-96T Cell-Harvester”. The Unifilter GF/B plate is dried for 1 hour at 55° C. The plate is then sealed with a Back Seal® (Packard) and 35 μl of scintillation fluid are added per well (Ultima Gold®, Packard). After sealing with a top Seal® (Packard) and establishing an equilibrium (around 5 hours), radioactivity is determined in a “Trilux 1450 Microbeta” (Wallac).
The quantity of protein used in the above determination corresponds to the values known from the literature, as for example described in “Protein measurement with the folin phenol reagent”, Lowry et al., J. Biol. Chem., 193, 265-275, 1951.
A detailed description of the method may additionally be found in the literature, for example in M. Ch. Frink, H.-H. Hennies, W. Engelberger, M. Haurand and B. Wilffert (1996) Arzneim.-Forsch./Drug Res. 46 (III), 11, 1029-1036.

O=C(O)COCC(=O)N1CCC2(CC1)CN(Cc1ccc(F)c(F)c1)C(=O)O2 [Example 64, {2-[3-(3,4-difluorobenzyl)-2-oxo-1-oxa-3,8-diazaspiro[4.5]dec-8-yl]-2-oxoethoxy}acetic acid]
inhibition at 1 µM (human μ opioid receptor): 48%

CC(C)(CC(=O)O)C(=O)N1CCC2(CC1)CN(Cc1ccc(F)c(F)c1)C(=O)O2 [Example 65, 4-[3-(3,4-difluorobenzyl)-2-oxo-1-oxa-3,8-diazaspiro[4.5]dec-8-yl]-3,3-dimethyl-4-oxobutanoic acid]
inhibition at 1 µM (human μ opioid receptor): 56%
inhibition at 10 µM (5-HT transporter): 55%

CC(CC(=O)O)CC(=O)N1CCC2(CC1)CN(Cc1ccccc1F)C(=O)O2 (stereo not shown) [Example 67, 5-[3-(2-fluorobenzyl)-2-oxo-1-oxa-3,8-diazaspiro[4.5]dec-8-yl]-3-methyl-5-oxopentanoic acid]
inhibition at 1 µM (human μ opioid receptor): 41%

Cc1ccc(CN2CC3(CCN(C(=O)CC(C)(C)CC(=O)O)CC3)OC2=O)cc1 [Example 68, 3,3-dimethyl-5-[3-(4-methylbenzyl)-2-oxo-1-oxa-3,8-diazaspiro[4.5]dec-8-yl]-5-oxopentanoic acid]
inhibition at 1 µM (human μ opioid receptor): 46%

CC(CC(=O)O)CC(=O)N1CCC2(CC1)CN(Cc1ccc(F)c(F)c1)C(=O)O2 (stereo not shown) [Example 69, 5-[3-(3,4-difluorobenzyl)-2-oxo-1-oxa-3,8-diazaspiro[4.5]dec-8-yl]-3-methyl-5-oxopentanoic acid]
inhibition at 1 µM (human μ opioid receptor): 50%

O=C(O)COCC(=O)N1CCC2(CC1)CN(Cc1ccc(C(F)(F)F)cc1)C(=O)O2 [Example 70, {2-oxo-2-[2-oxo-3-(4-trifluoromethylbenzyl)-1-oxa-3,8-diazaspiro[4.5]dec-8-yl]ethoxy}acetic acid]
inhibition at 1 µM (human μ opioid receptor): 42%

CCOc1ccc(C(=O)N2CCC3(CC2)CN(Cc2ccc(C)cc2)C(=O)O3)cc1 [Example 92, 8-(4-ethoxybenzoyl)-3-(4-methylbenzyl)-1-oxa-3,8-diazaspiro[4.5]decan-2-one]
inhibition at 10 µM (NA transporter): 73%
inhibition at 1 µM (human μ opioid receptor): 70%
inhibition at 10 µM (5-HT transporter): 67%

COC(=O)CC(=O)N1CCC2(CC1)CN(Cc1ccc(C#N)cc1)C(=O)O2 [Example 93, 3-[3-(4-cyanobenzyl)-2-oxo-1-oxa-3,8-diazaspiro[4.5]dec-8-yl]-3-oxopropionic acid methyl ester]
inhibition at 1 µM (human μ opioid receptor): 65%

N#Cc1ccccc1CN1CC2(CCN(C(=O)c3ccc(F)cc3F)CC2)OC1=O [Example 94, 2-[8-(2,4-difluorobenzoyl)-2-oxo-1-oxa-3,8-diazaspiro[4.5]dec-3-ylmethyl]benzonitrile]
inhibition at 1 µM (human μ opioid receptor): 62%

Cc1cc(C)cc(CN2CC3(CCN(C(=O)c4cccc(N(C)C)c4)CC3)OC2=O)c1 [Example 95, 8-(3-dimethylaminobenzoyl)-3-(3,5-dimethylbenzyl)-1-oxa-3,8-diazaspiro[4.5]decan-2-one]
inhibition at 1 µM (human μ opioid receptor): 75%

CC(=O)Nc1ccc(C(=O)N2CCC3(CC2)CN(Cc2ccc(F)c(F)c2)C(=O)O3)cc1 [Example 96, N-{4-[3-(3,4-difluorobenzyl)-2-oxo-1-oxa-3,8-diazaspiro[4.5]decane-8-carbonyl]phenyl}acetamide]
inhibition at 1 µM (human μ opioid receptor): 78%

O=C1OC2(CCN(C(=O)c3ccc(Br)cc3)CC2)CN1Cc1ccc(F)cc1 [Example 97, 8-(4-bromobenzoyl)-3-(4-fluorobenzyl)-1-oxa-3,8-diazaspiro[4.5]decan-2-one]
inhibition at 1 µM (human μ opioid receptor): 67%

N#Cc1ccc(CN2CC3(CCN(C(=O)C45CC6CC(CC(C6)C4)C5)CC3)OC2=O)cc1 [Example 98, 4-[8-(adamantane-1-carbonyl)-2-oxo-1-oxa-3,8-diazaspiro[4.5]dec-3-ylmethyl]benzonitrile]
inhibition at 1 µM (human μ opioid receptor): 75%

O=C1OC2(CCN(C(=O)c3ccc(Cl)cc3)CC2)CN1Cc1cccc(Br)c1 [Example 100, 3-(3-bromobenzyl)-8-(4-chlorobenzoyl)-1-oxa-3,8-diazaspiro[4.5]decan-2-one]
inhibition at 1 µM (human μ opioid receptor): 64%

COc1cc(OC)cc(C(=O)N2CCC3(CC2)CN(Cc2cccc(Br)c2)C(=O)O3)c1 [Example 137, 3-(3-bromobenzyl)-8-(3,5-dimethoxybenzoyl)-1-oxa-3,8-diazaspiro[4.5]decan-2-one]
inhibition at 10 µM (NA transporter): 84%
inhibition at 10 µM (5-HT transporter): 74%

CCCc1ccc(C(=O)N2CCC3(CC2)CN(Cc2cccc(Br)c2)C(=O)O3)cc1 [Example 148, 3-(3-bromobenzyl)-8-(4-propylbenzoyl)-1-oxa-3,8-diazaspiro[4.5]decan-2-one]
inhibition at 10 µM (NA transporter): 75%
inhibition at 10 µM (5-HT transporter): 73%

O=C1OC2(CCN(S(=O)(=O)Cc3cccc(Cl)c3)CC2)CN1Cc1ccccc1-c1ccccc1 [Example 149, 3-biphenyl-2-ylmethyl-8-(3-chlorobenzylsulfonyl)-1-oxa-3,8-diazaspiro[4.5]decan-2-one]
inhibition at 1 µM (human μ opioid receptor): 61%
